Structures are written as SMILES. In brackets after ≈: the same amount, converted by molar mass.

A word on the MIC: it is the smallest concentration in the dilution series that meets the test's criterion for growth inhibition.

Test [1] has as its system Staphylococcus aureus. The test can be described thus: Antimicrobial activity against vancomycin-sensitive Staphylococcus aureus ATCC 25923 after 24 hrs by microtiter plate assay. Format: functional. Conditions: ATCC 25923, 24 h.
Test [2] in a line: Ratio of MIC for VanB vancomycin-resistant Enterococcus faecalis ATCC 51299 to MIC for vancomycin-sensitive Staphylococcus aureus ATCC 25923. It is filed as functional.
A short description of test [3]: Binding affinity to N,N'-Ac2-L-Lys-D-Ala-D-Ala (unknown origin).
The subject of test [4] is Enterococcus faecalis. The test can be described thus: Antimicrobial activity against VanB vancomycin-resistant Enterococcus faecalis ATCC 51299 after 24 hrs by microtiter plate assay. Format: functional. The note with it: ATCC 51299, 24 h.
Test [5] has as its system Enterococcus faecalis. The test can be described thus: Antimicrobial activity against VanB vancomycin-resistant Enterococcus faecalis ATCC 51299. It is filed as functional.
Test [6] concerns Enterococcus faecalis. The test can be described thus: Antimicrobial activity against VanA vancomycin-resistant Enterococcus faecalis BM4166. Format: functional.
The test system of test [7] is Staphylococcus aureus. The test can be described thus: Antimicrobial activity against Staphylococcus aureus ATCC 25923. It is filed as functional.

Take `CN[C@H](CC(C)C)C(=O)N[C@H]1C(=O)N[C@@H](CC(N)=O)C(=O)N[C@H]2C(=O)N[C@H]3C(=O)N[C@H](C(=O)N[C@H](C(=O)OC)c4cc(OC)cc(OC)c4-c4cc3ccc4OC)[C@H](O)c3ccc(c(Cl)c3)Oc3cc2cc(c3OC)Oc2ccc(cc2O)[C@H]1O`: the MIC in test [1] and in test [4] was 5 µg/mL (≈ 4.18 µM) each time. In addition, the Ratio in test [2] amounted to 1. Besides, the Ka in test [3] turned out to be 0.88 ×10⁵ /M.
As to `CN[C@H](CC(C)C)C(=O)N[C@H]1C(=O)N[C@@H](CC(N)=O)C(=O)N[C@H]2C(=O)N[C@H]3C(=O)N[C@H](C(=O)N[C@H](C(=O)OC)c4cc(OC)cc(OC)c4-c4cc3ccc4OC)[C@H](O)c3ccc(c(Cl)c3)Oc3cc2cc(c3OC)Oc2ccc(cc2C)[C@H]1O`, the MIC in test [1] was found to be 2.5 µg/mL (≈ 2.09 µM); in test [4] it was 5 µg/mL (≈ 4.19 µM). This molecule yielded a Ka in test [3] of 1.2 ×10⁵ /M.
For `CN[C@H](CC(C)C)C(=O)N[C@H]1C(=O)N[C@@H](CC(N)=O)C(=O)N[C@H]2C(=O)N[C@H]3C(=O)N[C@H](C(=O)N[C@H](C(=O)OC)c4cc(OC)cc(OC)c4-c4cc3ccc4OC)[C@H](O)c3ccc(c(Cl)c3)Oc3cc2cc(c3OC)Oc2ccc(cc2N(C)C)[C@H]1O`, the results for the MIC in test [1] and in test [4] were 5 µg/mL (≈ 4.09 µM) and 10 µg/mL (≈ 8.18 µM), respectively. In addition, in test [3], the Ka turned out to be 0.34 ×10⁵ /M.
`CN[C@H](CC(C)C)C(=O)N[C@H]1C(=O)N[C@@H](CC(N)=O)C(=O)N[C@H]2C(=O)N[C@H]3C(=O)N[C@H](C(=O)N[C@H](C(=O)OC)c4cc(OC)cc(OC)c4-c4cc3ccc4OC)[C@H](O)c3ccc(c(Cl)c3)Oc3cc2cc(c3OC)Oc2ccc(cc2N=[N+]=[N-])[C@H]1O`: the MIC came out at 1.25 µg/mL (≈ 1.02 µM) in test [1] and 5 µg/mL (≈ 4.1 µM) in test [4]. The molecule further had a Ka in test [3] of 1.2 ×10⁵ /M.
As for `CN[C@H](CC(C)C)C(=O)N[C@H]1C(=O)N[C@@H](CC(N)=O)C(=O)N[C@H]2C(=O)N[C@H]3C(=O)N[C@H](C(=O)N[C@H](C(=O)OC)c4cc(OC)cc(OC)c4-c4cc3ccc4OC)[C@H](O)c3ccc(c(Cl)c3)Oc3cc2cc(c3OC)Oc2ccc(cc2OC)[C@H]1O`, the MIC is 2.5 µg/mL (≈ 2.07 µM) in test [1] and 5 µg/mL (≈ 4.13 µM) in test [4]. The molecule also showed a Ka in test [3] of 1.2 ×10⁵ /M.
Consider `CN[C@H](CC(C)C)C(=O)N[C@H]1C(=O)N[C@@H](CC(N)=O)C(=O)N[C@H]2C(=O)N[C@H]3C(=O)N[C@H](C(=O)N[C@H](C(=O)O)c4cc(O)cc(O)c4-c4cc3ccc4O)[C@H](O)c3ccc(c(Cl)c3)Oc3cc2cc(c3O)Oc2ccc(cc2)[C@H]1O`, for which the MIC in test [1] is 5 µg/mL (≈ 4.51 µM); in test [4], 80 µg/mL (≈ 72.1 µM). Besides, the Ka in test [3] came out at 0.68 ×10⁵ /M.
For `CN[C@H](CC(C)C)C(=O)N[C@H]1C(=O)N[C@@H](CC(N)=O)C(=O)N[C@H]2C(=O)N[C@H]3C(=O)N[C@H](C(=O)N[C@H](C(=O)OC)c4cc(OC)cc(OC)c4-c4cc3ccc4OC)[C@H](O)c3ccc(c(Cl)c3)Oc3cc2cc(c3OC)Oc2ccc(cc2C(F)(F)F)[C@H]1O`, the minimal inhibitory concentration (MIC) came to 2.5 µg/mL (≈ 2 µM) in test [1] and 20 µg/mL (≈ 16 µM) in test [4]. For the same molecule, the Ratio in test [2] stood at 8. In test [3], this molecule yielded a Ka of 1.2 ×10⁵ /M.
`CN[C@H](CC(C)C)C(=O)N[C@H]1C(=O)N[C@@H](CC(N)=O)C(=O)N[C@H]2C(=O)N[C@H]3C(=O)N[C@H](C(=O)N[C@H](C(=O)OC)c4cc(OC)cc(OC)c4-c4cc3ccc4OC)[C@H](O)c3ccc(c(Cl)c3)Oc3cc2cc(c3OC)Oc2ccc(cc2B(O)O)[C@H]1O`: the MIC came to 5 µg/mL (≈ 4.09 µM) in test [1] and 10 µg/mL (≈ 8.17 µM) in test [4]. Also, the Ka in test [3] came to 0.23 ×10⁵ /M.
For `CN[C@H](CC(C)C)C(=O)N[C@H]1C(=O)N[C@@H](CC(N)=O)C(=O)N[C@H]2C(=O)N[C@H]3C(=O)N[C@H](C(=O)N[C@H](C(=O)OC)c4cc(OC)cc(OC)c4-c4cc3ccc4OC)[C@H](O)c3ccc(c(Cl)c3)Oc3cc2cc(c3OC)Oc2ccc(cc2[N+](=O)[O-])[C@H]1O` the same measures were greater than 40 µg/mL, greater than 40 µg/mL and 0.097 ×10⁵ /M.
`CN[C@H](CC(C)C)C(=O)N[C@H]1C(=O)N[C@@H](CC(N)=O)C(=O)N[C@H]2C(=O)N[C@H]3C(=O)N[C@H](C(=O)N[C@H](C(=O)O)c4cc(O)cc(O)c4-c4cc3ccc4O)[C@H](O)c3ccc(c(Cl)c3)Oc3cc2cc(c3O)Oc2ccc(cc2Cl)[C@H]1O` [VANCOMYCIN AGLYCON]: the MIC was 1.25 µg/mL (≈ 1.09 µM) in test [1]; greater than 100 µg/mL in test [5]; greater than 100 µg/mL in test [6]; 0.8 µg/mL (≈ 0.699 µM) in test [7]; 40 µg/mL (≈ 35 µM) in test [4]. This molecule registered a Ka in test [3] of 1.4 ×10⁵ /M.
Regarding `COC(=O)[C@H]1NC(=O)[C@H]2NC(=O)[C@H](NC(=O)[C@@H]3NC(=O)[C@H]4NC(=O)[C@@H](Cc5ccc(c(Cl)c5)Oc5cc3cc(c5OC)Oc3ccc(cc3Cl)[C@H]2O)NC(=O)[C@H](N)c2ccc(OC)c(c2)Oc2cc(OC)cc4c2)c2ccc(OC)c(c2)-c2c(OC)cc(OC)cc21`, the figures for the MIC in test [5], in test [6] and in test [7] were 3.2 µg/mL (≈ 2.47 µM), greater than 100 µg/mL and 3.2 µg/mL (≈ 2.47 µM), respectively.
On to `CN[C@H](CC(C)C)C(=O)N[C@H]1C(=O)N[C@@H](CC(N)=O)C(=O)N[C@H]2C(=O)N[C@H]3C(=O)N[C@H](C(=O)N[C@H](C(=O)O)c4cc(O)cc(O)c4-c4cc3ccc4O)[C@H](O)c3ccc(c(Cl)c3)Oc3cc2cc(c3O)Oc2ccc(cc2O)[C@H]1O`, for which the MIC in test [1] was 5 µg/mL (≈ 4.44 µM); in test [4], 40 µg/mL (≈ 35.5 µM). For the same molecule, the Ka in test [3] worked out at 0.53 ×10⁵ /M.
For `CN[C@H](CC(C)C)C(=O)N[C@H]1C(=O)N[C@@H](CC(N)=O)C(=O)N[C@H]2C(=O)N[C@H]3C(=O)N[C@H](C(=O)N[C@H](C(=O)OC)c4cc(OC)cc(OC)c4-c4cc3ccc4OC)[C@H](O)c3ccc(c(Cl)c3)Oc3cc2cc(c3OC)Oc2ccc(cc2Br)[C@H]1O` the same measures were 2.5 µg/mL (≈ 1.99 µM), 5 µg/mL (≈ 3.97 µM) and 1.1 ×10⁵ /M.
As for `CN[C@H](CC(C)C)C(=O)N[C@H]1C(=O)N[C@@H](CC(N)=O)C(=O)N[C@H]2C(=O)N[C@H]3C(=O)N[C@H](C(=O)N[C@H](C(=O)OC)c4cc(OC)cc(OC)c4-c4cc3ccc4OC)[C@H](O)c3ccc(c(Cl)c3)Oc3cc2cc(c3OC)Oc2ccc(cc2Cl)[C@H]1O`, the MIC in test [1] was determined as 1.25 µg/mL (≈ 1.03 µM); in test [5], 2.5 µg/mL (≈ 2.06 µM); in test [6] it was 50 µg/mL (≈ 41.2 µM); in test [7], 1.25 µg/mL (≈ 1.03 µM); in test [4], 2.5 µg/mL (≈ 2.06 µM). Also, the Ka in test [3] amounted to 1.3 ×10⁵ /M.
As to `CN[C@H](CC(C)C)C(=O)N[C@H]1C(=O)N[C@@H](CC(N)=O)C(=O)N[C@H]2C(=O)N[C@H]3C(=O)N[C@H](C(=O)N[C@H](C(=O)OC)c4cc(OC)cc(OC)c4-c4cc3ccc4OC)[C@H](O)c3ccc(c(Cl)c3)Oc3cc2cc(c3OC)Oc2ccc(cc2C(=O)OC)[C@H]1O`, the figures for the MIC in test [1] and in test [4] were 2.5 µg/mL (≈ 2.02 µM) and 10 µg/mL (≈ 8.08 µM), respectively. The Ka in test [3] turned out to be 1 ×10⁵ /M.
Take `CN[C@H](CC(C)C)C(=O)N[C@H]1C(=O)N[C@@H](CC(N)=O)C(=O)N[C@H]2C(=O)N[C@H]3C(=O)N[C@H](C(=O)N[C@H](C(=O)O)c4cc(O)cc(O)c4-c4cc3ccc4O)[C@H](O)c3ccc(c(Cl)c3)Oc3cc2cc(c3O[C@@H]2O[C@H](CO)[C@@H](O)[C@H](O)[C@H]2O[C@H]2C[C@](C)(N)[C@H](O)[C@H](C)O2)Oc2ccc(cc2Cl)[C@H]1O` [VANCOMYCIN]: the minimal inhibitory concentration (MIC) in test [1] was 1.25 µg/mL (≈ 0.863 µM); in test [5] it was 120 µg/mL (≈ 82.8 µM); in test [6] it was greater than 100 µg/mL; in test [4] it was 120 µg/mL (≈ 82.8 µM).
Take `CN[C@H](CC(C)C)C(=O)N[C@H]1C(=O)N[C@@H](CC(N)=O)C(=O)N[C@H]2C(=O)N[C@H]3C(=O)N[C@H](C(=O)N[C@H](C(=O)OC)c4cc(OC)cc(OC)c4-c4cc3ccc4OC)[C@H](O)c3ccc(c(Cl)c3)Oc3cc2cc(c3OC)Oc2ccc(cc2)[C@H]1O`: the minimal inhibitory concentration (MIC) in test [1] and in test [4] was 5 µg/mL (≈ 4.24 µM) in each case. Also, the Ratio in test [2] stood at 1. Also, the Ka in test [3] is 0.71 ×10⁵ /M.
`CN[C@H](CC(C)C)C(=O)N[C@H]1C(=O)N[C@@H](CC(N)=O)C(=O)N[C@H]2C(=O)N[C@H]3C(=O)N[C@H](C(=O)N[C@H](C(=O)OC)c4cc(OC)cc(OC)c4-c4cc3ccc4OC)[C@H](O)c3ccc(c(Cl)c3)Oc3cc2cc(c3OC)Oc2ccc(cc2C#N)[C@H]1O`: the MIC in test [1] was determined as 2.5 µg/mL (≈ 2.08 µM); in test [4], 5 µg/mL (≈ 4.15 µM). In test [3], the Ka amounted to 1.1 ×10⁵ /M.
Take `CN[C@H](CC(C)C)C(=O)N[C@H]1C(=O)N[C@@H](CC(N)=O)C(=O)N[C@H]2C(=O)N[C@H]3C(=O)N[C@H](C(=O)N[C@H](C(=O)O)c4cc(O)cc(O)c4-c4cc3ccc4O)[C@H](O)c3ccc(c(Cl)c3)Oc3cc2cc(c3O)Oc2ccc(cc2Br)[C@H]1O`: the MIC in test [1] came out at 2.5 µg/mL (≈ 2.1 µM); in test [4], 40 µg/mL (≈ 33.7 µM). Further, the Ka in test [3] was determined as 1.1 ×10⁵ /M.
With `CN[C@H](CC(C)C)C(=O)N[C@H]1C(=O)N[C@@H](CC(N)=O)C(=O)N[C@H]2C(=O)N[C@H]3C(=O)N[C@H](C(=O)N[C@H](C(=O)OC)c4cc(OC)cc(OC)c4-c4cc3ccc4OC)[C@H](O)c3ccc(c(Cl)c3)Oc3cc2cc(c3OC)Oc2ccc(cc2I)[C@H]1O`, the results for the MIC in test [1] and in test [4] were 2.5 µg/mL (≈ 1.91 µM) and 10 µg/mL (≈ 7.66 µM), respectively. For the same molecule, in test [3], the Ka was 1.3 ×10⁵ /M.
In the case of `N[C@H]1C(=O)N[C@@H]2Cc3ccc(c(Cl)c3)Oc3cc4cc(c3O)Oc3ccc(cc3Cl)[C@@H](O)[C@@H]3NC(=O)[C@H](NC(=O)[C@@H]4NC(=O)[C@@H](NC2=O)c2cc(O)cc(c2)Oc2cc1ccc2O)c1ccc(O)c(c1)-c1c(O)cc(O)cc1[C@@H](C(=O)O)NC3=O` [TEICOPLANIN AGLYCON], the minimum inhibitory concentration (MIC) in test [5] is 25 µg/mL (≈ 20.9 µM); in test [6], greater than 100 µg/mL; in test [7], 1.6 µg/mL (≈ 1.33 µM).

Source of the values: ChEMBL document CHEMBL2346573, “Probing the role of the vancomycin e-ring aryl chloride: selective divergent synthesis and evaluation of alternatively substituted E-ring analogues” (2013).
